Consider 9 molecules from patent US20150071918A1, “PEPTIDES FOR THE TREATMENT OF CANCER” (H. LEE MOFFITT CANCER CENTER AND RESEARCH INSTITUTE, INC., priority 2012, published 2015).

The IC50 is the concentration that inhibits the measured activity by half. By Kd is commonly meant a measure of binding affinity in units of concentration.

Data set [1] has as its system peripheral blood mononuclear cells (PBMC). In words: Cell death in normal peripheral blood mononuclear cells, annexin V positivity and FACS. It counts as cell-based, human. The following applies: 6.25-50 ug/ml, six hours. The protocol:
Peripheral blood mononuclear cells (PBMC) were isolated from a normal donor. Cells were treated with 6.25, 12.5, 25 and 50 ug/ml for six hours and cell death was measured by annexin V positivity and FACS analysis.
CD34^+ hematopoietic progenitor cells were isolated from peripheral blood and treated for 2 hrs with integrin interaction inhibitors (12.5 and 50 μg/ml) and then plated in a methylcellulose media supplemented with growth factors supporting myeloid and erythroid colonies. Colonies were counted on day 12 post-plating. […] In addition, we evaluated the toxicity of integrin interaction inhibitors in normal peripheral blood mononuclear cells (PBMC).

For another data set, the system named is H929 myeloma cells. Format: cell-based, human. To be noted: for IC50: read-out: IC50. On the procedure:
H929 cells were treated for 24 hours with varying concentrations of peptide. Cell death was measured by Topro-3 staining and FACS analysis. The IC50 values were obtained from linear regression analysis and an average value was obtained from 3 independent experiments.
Table 4 legend: Structure activity relationship in H929 myeloma cells of cyclic INTEGRIN INTERACTION INHIBITORS derivatives. The minimal bioactive core sequence of INTEGRIN INTERACTION INHIBITORS WSVVM (SEQ ID NO:33) was cyclized using 2 novel reduced amide bond beta turn promoters and KLKLK (SEQ ID NO:34) as the non-recognition sequence. H929 cells were treated with varying concentrations of the indicated peptide for 24 h. Cell viability was determined using Topro-3 staining and FACS analysis after drug treatment. IC50 values were generated from linear regressions generated from the dose response curves (n=mean of 3 independent experiments).
A colony forming assay was used to compare induced cell death in H929 multiple myeloma cells. Cells were treated with integrin interaction inhibitors, shown in FIG. 5 and Table 4, and cell death was measured following 24 hour peptide treatment by TOPRO-3 staining and FACS analysis.

Data set [2] concerns the target recombinant human CD44 ectodomain (amino acids 20-178, His-tagged, refolded from E. coli) (human) (UniProt P16070). The data set is described as follows: SPR, Biacore T100, recombinant CD44 ectodomain over biotin-HYD1 sensor chip, 1:1 binding model. On the technique in general: SPR reads the build-up and loss of mass on a sensor chip optically.
The target of data set [3] is Neural cell adhesion molecule 1 (NCAM1) (Homo sapiens (Human)) (UniProt P13591). In words: biotin-HYD1 NeutrAvidin pull-down of NCI-H929 membranes, LC-MS/MS.
Chain of Neural cell adhesion molecule 1 (NCAM1) (Homo sapiens (Human)) (P13591 other isoform, or with tags, fused parts or gaps limits assumed): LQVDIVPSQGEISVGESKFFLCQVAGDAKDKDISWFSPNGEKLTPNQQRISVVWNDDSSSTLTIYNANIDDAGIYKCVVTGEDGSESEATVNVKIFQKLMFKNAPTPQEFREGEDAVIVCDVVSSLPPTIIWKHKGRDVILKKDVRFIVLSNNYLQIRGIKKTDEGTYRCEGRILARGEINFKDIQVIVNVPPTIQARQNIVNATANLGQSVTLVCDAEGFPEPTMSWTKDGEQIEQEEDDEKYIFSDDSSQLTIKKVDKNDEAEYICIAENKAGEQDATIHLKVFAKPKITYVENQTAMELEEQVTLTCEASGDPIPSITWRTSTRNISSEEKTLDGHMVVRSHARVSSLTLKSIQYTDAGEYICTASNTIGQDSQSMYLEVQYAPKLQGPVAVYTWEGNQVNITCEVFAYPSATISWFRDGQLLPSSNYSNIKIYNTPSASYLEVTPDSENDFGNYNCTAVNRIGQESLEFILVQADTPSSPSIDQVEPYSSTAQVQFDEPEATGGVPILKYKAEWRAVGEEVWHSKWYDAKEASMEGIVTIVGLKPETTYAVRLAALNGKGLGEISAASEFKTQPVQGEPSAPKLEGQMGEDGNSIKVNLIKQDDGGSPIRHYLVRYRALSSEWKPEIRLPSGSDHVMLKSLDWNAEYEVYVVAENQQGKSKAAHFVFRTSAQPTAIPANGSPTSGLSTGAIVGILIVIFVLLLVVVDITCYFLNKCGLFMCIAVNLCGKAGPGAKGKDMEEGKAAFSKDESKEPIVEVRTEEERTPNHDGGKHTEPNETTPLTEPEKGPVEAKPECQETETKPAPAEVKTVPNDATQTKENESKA
Data set [4] has as its target Syndecan-1 (Homo sapiens (Human)) (UniProt P18827). The data set is described as above.
Data set [5] addresses CD59 (UniProt P13987). The description is as above.
For data set [6], the target named is Basigin (Homo sapiens (Human)) (UniProt P35613). Described as above.
Chain of Basigin (Homo sapiens (Human)) (P35613 other isoform, or with tags, fused parts or gaps limits assumed): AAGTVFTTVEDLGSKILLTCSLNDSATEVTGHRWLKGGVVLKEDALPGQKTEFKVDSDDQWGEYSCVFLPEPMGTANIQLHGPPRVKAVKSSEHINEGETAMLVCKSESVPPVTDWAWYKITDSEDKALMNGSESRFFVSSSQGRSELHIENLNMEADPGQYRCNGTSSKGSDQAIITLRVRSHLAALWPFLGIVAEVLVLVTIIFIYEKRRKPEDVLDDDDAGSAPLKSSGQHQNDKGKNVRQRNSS
For data set [7], the target named is α4 integrin (Homo sapiens (Human)) (UniProt P13612). The description is as above.
The target in a further data set is β1 integrin (UniProt P05556). The data set is described as above.
Chain of β1 integrin (P05556 21-798): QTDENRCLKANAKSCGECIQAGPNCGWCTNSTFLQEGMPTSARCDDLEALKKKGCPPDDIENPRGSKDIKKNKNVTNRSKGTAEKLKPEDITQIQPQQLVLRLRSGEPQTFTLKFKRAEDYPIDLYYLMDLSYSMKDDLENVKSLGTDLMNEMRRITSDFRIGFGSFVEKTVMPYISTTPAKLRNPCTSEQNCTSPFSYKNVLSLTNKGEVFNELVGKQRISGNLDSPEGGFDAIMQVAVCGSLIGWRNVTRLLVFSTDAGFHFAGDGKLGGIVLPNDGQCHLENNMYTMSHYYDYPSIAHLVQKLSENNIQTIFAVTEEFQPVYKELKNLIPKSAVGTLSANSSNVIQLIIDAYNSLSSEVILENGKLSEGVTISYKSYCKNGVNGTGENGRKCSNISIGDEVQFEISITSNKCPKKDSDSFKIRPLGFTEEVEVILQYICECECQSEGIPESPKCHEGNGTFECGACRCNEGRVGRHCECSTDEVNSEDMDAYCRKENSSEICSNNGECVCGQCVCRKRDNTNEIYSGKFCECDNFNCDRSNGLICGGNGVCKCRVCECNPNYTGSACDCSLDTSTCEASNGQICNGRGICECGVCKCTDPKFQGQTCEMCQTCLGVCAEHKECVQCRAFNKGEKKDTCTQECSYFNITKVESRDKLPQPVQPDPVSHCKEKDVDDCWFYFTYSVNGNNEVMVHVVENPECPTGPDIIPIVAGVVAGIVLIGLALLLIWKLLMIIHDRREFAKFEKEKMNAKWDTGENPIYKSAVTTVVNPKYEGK
The target in data set [8] is CD44 (endogenous, of NCI-H929, U266, U937 and HL-60 cells) (human) (UniProt P16070). Described as above.
Chain of CD44 (endogenous, of NCI-H929, U266, U937 and HL-60 cells) (human) (P16070 21-742 limits assumed): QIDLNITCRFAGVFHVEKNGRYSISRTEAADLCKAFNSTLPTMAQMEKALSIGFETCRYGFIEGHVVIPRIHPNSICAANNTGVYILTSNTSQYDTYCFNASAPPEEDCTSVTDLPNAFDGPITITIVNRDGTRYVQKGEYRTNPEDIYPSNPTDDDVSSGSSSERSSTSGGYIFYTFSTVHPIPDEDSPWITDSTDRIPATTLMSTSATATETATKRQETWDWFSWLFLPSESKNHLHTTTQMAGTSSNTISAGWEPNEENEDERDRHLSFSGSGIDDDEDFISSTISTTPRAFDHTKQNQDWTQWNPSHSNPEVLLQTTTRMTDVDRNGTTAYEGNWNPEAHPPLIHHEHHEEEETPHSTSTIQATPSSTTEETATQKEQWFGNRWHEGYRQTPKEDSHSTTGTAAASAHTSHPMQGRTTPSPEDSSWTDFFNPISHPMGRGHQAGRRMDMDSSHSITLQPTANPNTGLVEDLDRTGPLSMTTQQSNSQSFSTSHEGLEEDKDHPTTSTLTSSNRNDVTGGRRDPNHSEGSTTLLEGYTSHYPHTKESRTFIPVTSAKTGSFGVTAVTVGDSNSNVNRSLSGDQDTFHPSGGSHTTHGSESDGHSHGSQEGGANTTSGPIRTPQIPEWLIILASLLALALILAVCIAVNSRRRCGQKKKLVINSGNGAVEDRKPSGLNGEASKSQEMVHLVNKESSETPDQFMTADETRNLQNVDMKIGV
Data set [9] addresses recombinant human CD44 ectodomain (amino acids 20-178, His-tagged, refolded from E. coli) (human) (UniProt P16070). In words: SPR, recombinant CD44 ectodomain on biotin conjugated HYD1, two-state binding model.
Data set [10] has as its target CD59 (UniProt P13987). The data set is described as follows: LC-MS/MS of the biotin-HYD1 binding complex pulled down from NCI-H929 membranes (row CD59, column NCI-H929) [panel A.].
Data set [11] addresses Intercellular adhesion molecule 1 (ICAM1) (Homo sapiens (Human)) (UniProt P05362). The data set is described as follows: biotin-HYD1 NeutrAvidin pull-down of U266 membranes, LC-MS/MS.
Data set [12] concerns the target Intercellular adhesion molecule 3 (ICAM3) (Homo sapiens (Human)) (UniProt P32942). Described as above.
Data set [13] addresses Syndecan-1 (Homo sapiens (Human)) (UniProt P18827). The description is as above.
Data set [14] has as its target CD59 (UniProt P13987). The data set is described as above.
The target of data set [15] is Basigin (Homo sapiens (Human)) (UniProt P35613). Described as above.
Data set [16] has as its target CD44 (endogenous, of NCI-H929, U266, U937 and HL-60 cells) (human) (UniProt P16070). Described as above.
[17] abbreviates: H929 myeloma cells, 24 h treatment, Topro-3 staining and FACS, mean of at least 3 independent experiments.
Where [18] appears, read: Table 8, cyclic III peptide analogs, H929 cells.

Read-outs that look alike come from different tables or passages of the source. *1 amine or outer side, *2 acyl side, *3 side chain or, on linkers, in order; H or OH if unused. Where no end group is shown, it is not given here. [ ]: non-standard residue; d: D form. T1 = linker NH2CH2CH2N(SO2Me)CH2COOH, CS(=O)(=O)N(CCN[*:1])CC(=O)[*:2]; T3 = linker N(CH2)3CHCH2OCH2COOH; Nle = CCCC[C@H](N)C(=O)O

Chain of CD59 (P13987 26-102 limits assumed): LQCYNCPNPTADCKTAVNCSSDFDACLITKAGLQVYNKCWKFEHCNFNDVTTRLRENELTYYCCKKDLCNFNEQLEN
Chain of Syndecan-1 (Homo sapiens (Human)) (P18827 23-310 L136Q/G259V limits assumed): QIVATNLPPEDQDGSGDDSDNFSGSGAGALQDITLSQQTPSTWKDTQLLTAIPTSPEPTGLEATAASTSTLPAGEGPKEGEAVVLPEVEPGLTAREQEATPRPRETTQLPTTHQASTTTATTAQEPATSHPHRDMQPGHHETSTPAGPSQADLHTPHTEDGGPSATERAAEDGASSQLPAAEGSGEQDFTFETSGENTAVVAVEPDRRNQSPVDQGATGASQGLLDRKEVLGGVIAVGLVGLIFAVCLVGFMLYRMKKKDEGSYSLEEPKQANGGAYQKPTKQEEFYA
Chain of recombinant human CD44 ectodomain (amino acids 20-178, His-tagged, refolded from E. coli) (human) (P16070 20-178): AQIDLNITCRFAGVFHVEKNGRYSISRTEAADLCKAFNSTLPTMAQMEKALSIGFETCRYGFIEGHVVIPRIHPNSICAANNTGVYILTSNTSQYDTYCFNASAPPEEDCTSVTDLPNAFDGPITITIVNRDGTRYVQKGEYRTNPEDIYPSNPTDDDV
Chain of Intercellular adhesion molecule 1 (ICAM1) (Homo sapiens (Human)) (P05362 28-532 limits assumed): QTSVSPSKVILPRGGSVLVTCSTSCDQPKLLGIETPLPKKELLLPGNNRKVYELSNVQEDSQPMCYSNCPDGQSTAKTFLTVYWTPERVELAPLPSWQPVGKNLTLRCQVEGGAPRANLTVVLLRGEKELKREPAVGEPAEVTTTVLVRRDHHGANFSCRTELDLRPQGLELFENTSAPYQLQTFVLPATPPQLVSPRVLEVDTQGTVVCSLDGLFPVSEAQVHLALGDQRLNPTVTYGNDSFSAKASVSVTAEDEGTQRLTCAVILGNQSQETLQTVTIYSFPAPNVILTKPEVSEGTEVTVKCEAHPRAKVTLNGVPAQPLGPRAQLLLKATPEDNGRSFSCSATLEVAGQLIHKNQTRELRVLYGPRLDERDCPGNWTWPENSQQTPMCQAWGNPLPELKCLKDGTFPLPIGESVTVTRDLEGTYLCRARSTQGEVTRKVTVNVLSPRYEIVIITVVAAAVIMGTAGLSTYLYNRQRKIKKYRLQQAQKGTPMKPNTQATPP
Chain of Intercellular adhesion molecule 3 (ICAM3) (Homo sapiens (Human)) (P32942 30-547 limits assumed): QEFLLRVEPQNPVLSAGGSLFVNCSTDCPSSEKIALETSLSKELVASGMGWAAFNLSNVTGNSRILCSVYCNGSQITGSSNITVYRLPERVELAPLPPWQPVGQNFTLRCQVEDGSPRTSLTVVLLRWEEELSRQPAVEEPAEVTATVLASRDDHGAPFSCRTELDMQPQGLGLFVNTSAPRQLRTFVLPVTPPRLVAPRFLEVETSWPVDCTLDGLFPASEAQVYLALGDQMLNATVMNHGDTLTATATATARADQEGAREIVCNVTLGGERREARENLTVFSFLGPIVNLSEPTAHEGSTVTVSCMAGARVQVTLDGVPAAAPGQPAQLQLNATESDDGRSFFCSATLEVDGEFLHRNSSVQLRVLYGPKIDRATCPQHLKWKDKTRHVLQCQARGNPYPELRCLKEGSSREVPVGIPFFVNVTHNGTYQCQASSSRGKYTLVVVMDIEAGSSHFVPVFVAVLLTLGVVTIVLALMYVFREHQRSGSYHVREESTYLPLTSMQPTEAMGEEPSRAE

Regarding `CC[C@@H](C)[C@@H](NC(=O)[C@H](N)CCCCN)C(=O)N[C@H](CCCCN)C(=O)N[C@H](CCSC)C(=O)N[C@@H](C(=O)N[C@@H](C(=O)N[C@H](CO)C(=O)N[C@H](Cc1c[nH]c2ccccc12)C(=O)N[C@H](CCCCN)C(=O)NCC(=O)O)[C@H](C)CC)C(C)C` [HYD1], in data set [1], the “cell death in PBMC” value is listed as “more potent in MM cells (H929) compared to normal hematopoietic cells”.
“KLKLKT1WAVVAT1 (cyclo(KLKLK[T1]WAVVA[T1])) [Peptide 12]”: the IC50 was 10 µM with H929 myeloma cells (setting [17]) and 69 µM in the data set with H929 myeloma cells (setting [18]).
As for “KLKLKT1WAVVN*T1 (cyclo(KLKLK[T1]WAVV[Nle][T1])) [Peptide 11]”, the IC50 with H929 myeloma cells (setting [17]) worked out at 10 µM; with H929 myeloma cells (setting [18]), 12 µM.
As to “KLKLKT1WSVVMT1 (cyclo(KLKLK[T1]WSVVM[T1])) [Peptide 10]”, the IC50 in the data set on H929 myeloma cells (setting [17]) is 1 µM; in the data set on H929 myeloma cells (Table 4, H929 myeloma cells, 24 h, Topro-3 staining and FACS, mean of 3 independent experiments) it was 6.7 µM; with H929 myeloma cells (Table 5, H929 multiple myeloma cells, 24 hour peptide treatment, mean and standard deviation of three independent experiments) it was 5.9 µM; in the data set with H929 myeloma cells (setting [18]) it was 6 µM. Also, the “bioactivity relative to parent/comparator peptide” value with H929 myeloma cells (SAR statements, H929 cells) is “increases in activity relative to the inverso peptide”.
Take “KLKLQT1N*VVAWT3 (cyclo(KLKLQ[T1][Nle]VVAW[T3])) [Peptide 19]”: the IC50 in the data set on H929 myeloma cells (setting [17]) came out at 12 µM; in the data set with H929 myeloma cells (setting [18]) it was 19 µM.
For “KLKQKT1N*VVAWT3 [17] (cyclo(KLKQK[T1][Nle]VVAW[T3])) [Peptide 17]” the same measures were 25 µM and 13 µM.
The matching figures for “KLKQKT1N*VVAWT3 [21] (cyclo(KLKQK[T1][Nle]VVAW[T3])) [Peptide 21]”: 39 µM and 25 µM.
Regarding “KQKLKT1N*VVAWT3 (cyclo(KQKLK[T1][Nle]VVAW[T3])) [Peptide 20]”, the IC50 turned out to be 15 µM in the data set with H929 myeloma cells (setting [17]) and 18 µM with H929 myeloma cells (setting [18]).
As to [dK][dI][dK][dM][dV][dI][dS][dW][dK]G (also: biotin conjugated, site not given here) [biotin-HYD1 (biotin conjugated HYD1, all D-amino acid peptide kikmviswkg)], the Kd amounted to 0.026 µM in data set [2] and 0.0244 µM in data set [9]. Also, the Peptide match (peptide match hits) in [3] was determined as 4; in [4], 5; with CD59 [5] it was 2; in data set [6] it was 7; in data set [7] it was 3; with β1 integrin it was 2. Further, the Peptide match (peptide match hits) in [8] stood at 7; in data set [11], 6; in data set [12], 3; in data set [13], 6; in the data set with CD59 [14], 2; in data set [15], 8. Also, the Peptide match (peptide match hits) in data set [16] turned out to be 5. Also, the # peptides identified with CD59 [10] was determined as 3 peptides.
